This passage reports inhibition and Activity results from ChEMBL document CHEMBL4419178, “Yap1 inhibitors that target the interaction of yap1 with oct4” (2018).

Data set [1] deals with Transcriptional coactivator YAP1 (Homo sapiens) (UniProt P46937). Kind of data set: Inhibition of YAP1 (unknown origin) assessed as disruption in YAP1/OCT4 interaction at 5 uM by ELISA relative to control. (In an ELISA, binding on a coated surface is turned into a signal by an enzyme label.)
For data set [2] the target is unchanged. Kind of data set: Inhibition of YAP1 (unknown origin) assessed as disruption in YAP1/OCT4 interaction at 50 uM by cell based assay.
Data set [3] concerns NCI-H1650. Kind of data set: Inhibition of self-renewal capacity in stem-like side-population cells of human NCI-H1650 cells assessed as reduction in number of spheres at 50 uM incubated for 10 days by sphere formation assay. It counts as functional, cell-based.
Data set [4] deals with NCI-H1650. As to the kind of experiment: Inhibition of self-renewal capacity in stem-like side-population cells of human NCI-H1650 cells assessed as reduction in number of spheres at 5 to 50 uM incubated for 10 days by sphere formation assay. The data set is classed as functional, cell-based.
A short description of data set [5]: Cytotoxicity in human cancer associated fibroblasts at 20 to 50 uM incubated for 24 to 48 hrs by cytotracker-red/green dye staining based immunofluorescence microscopy.
Data set [6] deals with NCI-H1650. As to the kind of experiment: Cytotoxicity in human NCI-H1650 cells assessed as induction of cell killing in presence of cancer associated fibroblasts at 20 to 50 uM incubated for 24 to 48 hrs by cytotracker-red/green dye staining based immunofluorescence microscopy. The data set is classed as functional.
The target of data set [7] is Transcriptional coactivator YAP1 (Homo sapiens) (UniProt P46937). Kind of data set: Inhibition of YAP1 in human A549 cells assessed as disruption in YAP1/OCT4 co-localization at 25 uM incubated for 48 hrs by double immunofluorescence based assay. The data set is classed as cell-based.
Data set [8] has the same target. As to the kind of experiment: Inhibition of YAP1 in human NCI-H1650 cells assessed as disruption in YAP1/OCT4 interaction at 20 to 50 uM incubated for 48 hrs by proximity ligation assay. It counts as cell-based.
The subject of data set [9] is NCI-H1650. As to the kind of experiment: Inhibition of self-renewal capacity in stem-like side-population cells of human NCI-H1650 cells assessed as reduction in number of spheres at 1 to 20 uM incubated for 10 days by sphere formation assay. It counts as functional, cell-based.
For data set [10], the system named is NCI-H1650. As to the kind of experiment: Inhibition of YAP1 in human NCI-H1650 cells assessed as disruption in YAP1/TEAD2 interaction at 20 to 50 uM incubated for 48 hrs by proximity ligation assay. It counts as cell-based.
The target of data set [11] is Transcriptional coactivator YAP1 (Homo sapiens) (UniProt P46937). Kind of data set: Inhibition of YAP1 (unknown origin) assessed as disruption in YAP1/OCT4 interaction at 10 uM by ELISA relative to control.
For another data set, the system named is NCI-H146. As to the kind of experiment: Inhibition of self-renewal capacity in methotrexate insensitive stem-like side-population cells of human NCI-H146 cells assessed as reduction in number of spheres at 2 uM incubated for 3 days after 7 days methotrexate exposure by sphere formation assay. It counts as functional.

Calls of active or inactive are those of the source. The calls are words filed in the database; no cut-off is given here. Bounds are passed on as bounds.

Sequence of Transcriptional coactivator YAP1 (Homo sapiens) (P46937 whole entry): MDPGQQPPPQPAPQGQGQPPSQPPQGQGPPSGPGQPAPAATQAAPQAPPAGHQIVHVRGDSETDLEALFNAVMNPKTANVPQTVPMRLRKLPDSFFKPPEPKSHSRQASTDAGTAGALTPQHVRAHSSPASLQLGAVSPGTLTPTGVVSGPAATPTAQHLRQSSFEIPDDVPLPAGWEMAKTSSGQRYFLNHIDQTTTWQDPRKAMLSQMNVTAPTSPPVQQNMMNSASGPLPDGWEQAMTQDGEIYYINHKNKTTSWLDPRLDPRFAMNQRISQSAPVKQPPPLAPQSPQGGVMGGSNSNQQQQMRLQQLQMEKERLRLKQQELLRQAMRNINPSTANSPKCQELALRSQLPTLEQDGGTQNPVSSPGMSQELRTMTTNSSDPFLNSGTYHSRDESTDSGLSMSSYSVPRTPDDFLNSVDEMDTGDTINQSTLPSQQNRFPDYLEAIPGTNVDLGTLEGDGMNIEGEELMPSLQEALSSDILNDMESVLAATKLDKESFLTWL

As for `CC(C)(C)OC(=O)N1CCC(CC(=O)N[C@@H](Cc2ccc(OCc3ccccc3)cc2)C(=O)NC2CCCCC2)CC1`, the results for the inhibition in data set [1] and in data set [2] were 75% and 71%, respectively.
Turning to `O=C1NC2C(O)C(O)C(O)C(O)C2c2cc3c(c(O)c21)OCO3` (stereo unspecified), the inhibition – broadly, the share of the control response that was lost under treatment – with NCI-H1650 [3] is “Active”.
As to `O=[N+]([O-])c1[nH]cnc1/C=C/c1ccccc1`, the inhibition entry (with NCI-H1650 [4]; with NCI-H1650 [3]; in [7]) was “Active” in each case. Also, in data set [5], the Activity result is reported as “Non-Toxic”. In the data set with NCI-H1650 [6], the outcome was Active.
Take `O=C(CC1CCN(C(=O)CCc2ccccc2)CC1)N[C@@H](Cc1ccc(OCc2ccccc2)cc1)C(=O)NCC1CC1`: the inhibition in data set [1] is 95%; in data set [2], more than 84%.
In the case of `COCCn1c2nc(=O)n(-c3ccccc3)c(=O)c-2nc2ccccc21`, the inhibition entry (in [8]; in the data set with NCI-H1650 [9]; in the data set with NCI-H1650 [3]; in data set [7]; with NCI-H1650 [10]) was “Active” each time. In data set [5], the Activity entry is given as “Non-Toxic”. In the data set on NCI-H1650 [6], the outcome was Active.
In the case of `Oc1ccccc1/N=C/c1c(O)ccc2ccccc12`, the inhibition entry (in [8]; with NCI-H1650 [4]; in the data set with NCI-H1650 [3]; in data set [7]; in the data set with NCI-H1650 [10]) was “Active” each time. Further, in [5], the Activity entry is listed as “Non-Toxic”. Also, the result with NCI-H1650 [6] was Active.
For `CC(C)(C)OC(=O)N1CCC(CC(=O)N[C@@H](Cc2ccc(OCc3ccccc3)cc2)C(=O)O)CC1`, the inhibition came to 75% in [1] and 74% in [2].
On to `COc1cc2c(cc1OC)[N+]([O-])=C(c1ccccc1)C2=O`, for which the Activity result in data set [5] was “Non-Toxic”. In addition, the result with NCI-H1650 [6] was Active. In addition, the inhibition entry in data set [7] was “Active”.
`CC(C)NC(=O)[C@H](Cc1ccc(OCc2ccccc2)cc1)NC(=O)CC1CCN(C(=O)OC(C)(C)C)CC1`: the inhibition in [1] worked out at 95%; in data set [2] it was 83%.
With `COC(=O)[C@H](Cc1ccc(OCc2ccccc2)cc1)NC(=O)CC1CCN(C(=O)CC(c2ccccc2)c2ccccc2)CC1`, the inhibition result in the data set with NCI-H1650 [9] is “Active”.
As for `O=C(CC1CCN(C(=O)CCc2ccccc2)CC1)N[C@@H](Cc1ccc(OCc2ccccc2)cc1)C(=O)NC1CCCCC1`, the inhibition in data set [1] worked out at 90%; in data set [2] it was 70%.
Regarding `O=C(CC1CCN(C(=O)CCc2cccc(F)c2)CC1)N[C@@H](Cc1ccc(OCc2ccccc2)cc1)C(=O)O`, the inhibition entry in the data set on NCI-H1650 [4] was “Active”.
With `COC(=O)[C@H](Cc1ccc(OCc2ccccc2)cc1)NC(=O)CC1CCN(Cc2ccccc2)CC1`, the inhibition stood at 57% in [11] and 70% in data set [2].
`CCOC(=O)/C(C#N)=C/c1c[nH]c2ccccc12`: the inhibition entry in the data set on NCI-H1650 [3] is “Active”.
Turning to `CC1Oc2cc3c(-c4c(O)cc(O)c5c(O)c6c(cc45)OC(C)C(C)C6=O)c(O)cc(O)c3c(O)c2C(=O)C1C` (stereo unspecified), in [5], the Activity entry is reported as “Non-Toxic”. In addition, the result with NCI-H1650 [6] was Active. Further, the inhibition result in the data set on NCI-H1650 [3] was “Active”.
Consider `CCOc1ccc(CCC(=O)N2CCC(CC(=O)N[C@@H](Cc3ccc(OCc4ccccc4)cc3)C(=O)O)CC2)cc1`, for which the inhibition entry (in [8]; in the data set on NCI-H1650 [10]) was “Active” each time.
Take `COC(=O)[C@H](Cc1ccc(OCc2ccccc2)cc1)NC(=O)CC1CCN(C(=O)c2ccccc2)CC1`: the inhibition result with NCI-H1650 [4] is “Active”. Moreover, the inhibition in [11] came out at 75%; in data set [2] it was 84%.
On to `O=C(CC1CCN(C(=O)CCc2ccccc2)CC1)N[C@@H](Cc1ccc(OCc2ccccc2)cc1)C(=O)NC1CCC1`, for which the figures for the inhibition in data set [11] and in data set [2] were 80% and 65%, respectively.
`COC(=O)[C@H](Cc1ccc(OCc2ccccc2)cc1)NC(=O)CC1CCN(C(=O)CCc2cccc(C)c2)CC1`: the inhibition result in the data set with NCI-H1650 [9] is “Active”.
On to `O=C(CC1CCN(C(=O)CCc2ccccc2)CC1)N[C@@H](Cc1ccc(OCc2ccccc2)cc1)C(=O)NC1CCCC1`, for which the inhibition in [1] was 90%; in data set [2] it was more than 70%.
For the molecule `COC(=O)[C@H](Cc1ccc(OCc2ccccc2)cc1)NC(=O)CC1CCN(C(=O)CCc2ccccc2C)CC1`, the inhibition result with NCI-H1650 [9] was “Active”.
Consider `COC(=O)[C@H](Cc1ccc(O)cc1)NC(=O)CC1CCN(C(=O)CCc2ccccc2)CC1`, for which the results for the inhibition in data set [1] and in data set [2] were 97% and more than 77%, respectively.
For `COC(=O)[C@H](Cc1ccc(O)cc1)NC(=O)CC1CCN(C(=O)OC(C)(C)C)CC1` the same measures were 78% and 70%.
On to `O=C(CC1CCN(C(=O)CCc2ccccc2)CC1)N[C@@H](Cc1ccc(OCc2ccccc2)cc1)C(=O)NC1CC1`, for which the inhibition in [11] was 90%; in data set [1], 90%; in data set [2], more than 73%.
As for `CCOc1ccc(CCC(=O)N2CCC(CC(=O)N[C@@H](Cc3ccc(OCc4ccccc4)cc3)C(=O)OC)CC2)cc1`, in the data set with NCI-H1650 [9], the inhibition entry was “Active”.
`NC(=O)[C@H](Cc1ccc(OCc2ccccc2)cc1)NC(=O)CC1CCN(C(=O)CCc2ccccc2)CC1`: the inhibition result with NCI-H146 is “Active”.
